Experimental data published in patent US9393284B2, “Visfatin therapeutic agents for the treatment of acne and other conditions” (ARAVA BIO-TECH LTD., priority 2009, dated 2016).
Ends that are not written are not given here. * marks the point of attachment. Myristoyl = CCCCCCCCCCCCCC(=O)*

How the values were obtained:
sebum production = conditions: background statement; cited from earlier work
sebaceous glands = assay: Sebum production and maturation of sebaceous glands in newborn BalbC mice topically treated with visfatin antagonist siRNAs (Oil Red O, H&E, gland counts); format: in vivo, Mus musculus; conditions: siRNA free second control solution (PBS, 0.1% DMSO, 1 μg/ml MPDY), day 5 after birth
Description: Hematoxylin & Eosin Staining: Paraffin embedded skin biopsy section slides were incubated at 60° C. for 60 minutes and deparaffinized by washing the slides twice with toluene (100%) for 10 minutes and rehydrating the skin biopsy section slides in decreasing concentration of ethanol (100-50%) for 5 minutes each. The slides then were stained with a ready to use solution of hematoxylin for 5 minutes, rinsed with water, stained with eosin (0.5% in double distilled water) for 1.5 minutes and washed twice by rapid immersion in 70% ethanol. Thereafter, the slides were dehydrated by washing once with 95% ethanol for 5 minutes, twice with 100% ethanol for 5 minutes and twice with xylene (100%) for 10 minutes. This was followed by the application of ENTELLAN™ (Merck KGaA, Darmstadt, Germany) and the mounting of coverslips.
Oil Red O Staining: Frozen skin biopsy section slides were fixed in 1% neutral-buffered formalin for 5 minutes, washed in deionized water, and incubated in 60% isopropanol for 5 minutes. Skin biopsy section slides were stained with a fresh, filtered Oil Red O working solution which had been prepared immediately beforehand by making a 2:3 mixture of stock (0.5% Oil Red O in 99% isopropanol) and deionized water. […]

Compound	decrease of sebum production (sebum production)	effect of peptide alone on sebum production and skin (sebaceous glands)
CC1=C(/C=C/C(C)=C/C=C/C(C)=C\C(=O)O)C(C)(C)CCC1 [Isotretinoin]	up to 90%	
MPDY: cationic, lipophilic, N-myristoylated peptide having the amino acid sequence FARKGALRQ (SEQ ID NO: 27) (Myristoyl-FARKGALRQ)		did not inhibit sebum production or otherwise discernibly alter the skin
